Assay results reported in ChEMBL document CHEMBL3393021, “Evaluation and synthesis of polar aryl- and heteroaryl spiroazetidine-piperidine acetamides as ghrelin inverse agonists” (ACS Med Chem Lett, 2015).
≈ marks a conversion by molar mass, not a printed value. Values belong to the compound of their own block, whether it stands above or below them.

Key:
[1] = Toxicity in human THLE cells; type: cell-based
[2] = Kinetic solubility in 2% sodium phosphate buffer at pH 6.5 after 24 hrs; type: physicochemical; settings: read-out: Kinetic_solubility
[3] = Oral bioavailability in […] at 4 mg/kg; type: ADME, organism-based, Canis lupus familiaris; settings: in vivo
[4] = Oral bioavailability in Wistar Han rat at 5 mg/kg; type: ADME, organism-based; settings: in vivo
[5] = Oral bioavailability in […] at 5 mg/kg; type: ADME, organism-based, Macaca fascicularis; settings: in vivo
[6] = Volume of distribution at steady state in […] at 1 mg/kg, iv or 5 mg/kg, po; type: ADME, organism-based, Macaca fascicularis; settings: in vivo, read-out: Vdss
physchem = settings: buffer, pH 7.4
[7] = Volume of distribution at steady state in […] at 1 mg/kg, iv or 4 mg/kg, po; type: ADME, organism-based, Canis lupus familiaris; settings: in vivo, read-out: Vdss
[8] = Volume of distribution at steady state in Wistar Han rat at 1 mg/kg, iv or 5 mg/kg, po; type: ADME, organism-based; settings: in vivo, read-out: Vdss

solubility kinetic at 24 h [2]: 185 µg/mL (≈ 352 µM) | bioavailability [3]: 67% | bioavailability [4]: 15% | bioavailability [5]: 32% | Vd [6]: 2.2 L/kg | logD (physchem): 1.4 | Vd [7]: 7.3 L/kg | Vd [8]: 8.1 L/kg
Structure (SMILES): COc1ccc(CC(=O)N2CCC3(CC2)CN([C@@H]2CCc4cc(-c5cc(C)ncn5)ccc42)C3)c(C(N)=O)c1
INH [1]: > 248 µM

logD (physchem): 2.4
Structure (SMILES): COc1ccc(CC(=O)N2CCC3(CC2)CN([C@@H]2CCc4cc(-c5cc(C)ncn5)ccc42)C3)c(C#N)c1

logD (physchem): 1.6
Structure (SMILES): COc1ccc(CC(=O)N2CCC3(CC2)CN([C@@H]2CCc4cc(-c5cc(C)ncn5)ccc42)C3)c(NC(C)=O)c1

logD (physchem): 1.9
Structure (SMILES): COc1ccc(CCC(=O)N2CCC3(CC2)CN([C@@H]2CCc4cc(-c5cc(C)ncn5)ccc42)C3)c(C(N)=O)c1

The next lines start with the compound.

Structure (SMILES): Cc1cc(-c2ccc3c(c2)CC[C@H]3N2CC3(CCN(C(=O)Cc4nn(C)c5ncccc45)CC3)C2)ncn1
logD (physchem): 2.1

Structure (SMILES): COc1ccc(CC(=O)N2CCC3(CC2)CN([C@@H]2CCc4cc(-c5cc(C)ncn5)ccc42)C3)nc1
logD (physchem): 1.6

Structure (SMILES): COc1ccc(OCC(=O)N2CCC3(CC2)CN([C@@H]2CCc4cc(-c5cc(C)ncn5)ccc42)C3)c(C#N)c1
logD (physchem): 2.3
